Results from patent US8207206B2, “(S,R)-3-phenyl-4,5 dihydro-5-isoxazole acetic acid-nitric oxide and use thereof as anti-cancer and antiviral agent” (OncoNOx APS, priority 2007, dated 2012).

Assays:
L929 cells = assay: ROS measurement by DHR fluorescence (flow cytometry); type: cell-based, mouse; details: L929, 25 μg/ml, 24 h
Method: (§1) The cells grown in the 6-well plate were stained with 1 μM dihydrorhodamine 123 (DHR) 20 min before the treatment with the test compound. At the end of the cultivation period the cells were detached, washed and resuspended in PBS. Analysis of ROS release was performed with a FACSCalibur and analyzed using CellQuest Pro software (Kaludjerovic 2005).

B16 cells = assay: as above; type: cell-based, mouse; details: B16, 25 μg/ml, 24 h
Method: as §1

diabetes = details: NOD mice with spontaneous or accelerated diabetes, or multiple low dose streptozotocin diabetes; cited from earlier work
C6 cells = assay: ROS measurement by DHR fluorescence (flow cytometry); type: cell-based, rat; details: C6, 25 μg/ml, 24 h
Method: as §1

B16 mouse melanoma cells = assay: MTT / CV cell viability test; type: cell-based; details: B16 cells, different concentrations, 24 h; cell number also reduced by CV
Method: (§2) Rat glioma cell line C6 was a kind gift from Dr. Pedro Tranque (Universidad de Castilla-La Mancha, Albacete, Spain), murine melanoma B16 cell line was a kind gift from Dr. Sinisa Radulovic (Institute for Oncology and Radiology of Serbia, Belgrade, Serbia) while mouse fibrosarcoma L929 was obtained from the European Collection of Animal Cell Cultures (Salisbury, UK). Cells were grown in HEPES-buffered RPM, 1640 medium supplemented with 5% FCS, 2 mM glutamine, 0.01% sodium pyruvate, 5×10^−5 M 2-mercaptoethanol and antibiotics (culture medium) at 37° C. in a humidified atmosphere with 5% CO2. After conventional trypsinization the cells were seeded at a concentration of 10^4 cells/well in a 96-well plate, of 2×10^5 cells/well in a 6-well plate or at 3×10^4 cells/well in a 4-well chamber slide, cultivated overnight, and then exposed to the test compound.
(§3) The cells were seeded in flat-bottom 96-well plates (10^4 cells/well) in a final volume of 200 μl of culture medium, incubated overnight, then treated with different concentrations of the test compound. After 24 h incubation, cell viability was assessed using 3-4,5-dimethylthiazol-2-yl)-2,5-diphenyltetrazolium bromide (MTT) test, based on the mitochondrial-dependent reduction of MTT to formazan, or by crystal violet (CV) staining of adherent cells, as previously described (Mijatovic et al CMLS 2004). The results are presented as % of control values obtained in untreated cultures. The rate of cell proliferation was also determined using flow cytometric analysis of cells labeled with CFSE (Kang 2005). The cells were detached, added with 1.5 μM CFSE and allowed to stand for 15 min at 37° C., then washed twice and seeded in 6-well plates at 2×10^5. The cells were treated with the compound for 24 and 48 h, trypsinized and washed twice. Finally, the cells were resuspended in PBS and analyzed by flow cytometry. Green fluorescence emission from cells illuminated with excitation light of 488 nm was measured with a FACS Calibur (BD, Heidelberg, Germany) and analyzed using the CellQuest software.

[1] = system: L929 mouse fibrosarcoma cells; assay: MTT / CV cell viability test; type: cell-based; details: L929 cells, different concentrations, 24 h; cell number also reduced by CV
Method: as §2, §3

C6 rat astrocytoma cells = assay: MTT / CV cell viability test; type: cell-based; details: C6 cells, different concentrations, 24 h; cell number also reduced by CV
Method: as §2, §3

**Q.** With O=C(O)CC1CC(c2ccccc2)=NO1 (racemic) [VGX-1027, (S,R)-3-phenyl-4,5-dihydro-5-isoxasole acetic acid, reference compound] as the compound, how does the “intracellular production of ROS (DHR fluorescence)” value (“intracellular production of ROS” below) (L929 cells) read?
**A.** did not release ROS

**Q.** And the “intracellular production of ROS” value (B16 cells)?
**A.** did not release ROS

**Q.** What about the diabetes progress (diabetes) of the same compound?
**A.** significantly reduces diabetes progress

**Q.** And the “intracellular production of ROS” value (C6 cells)?
**A.** did not release ROS

**Q.** And the “cell viability (MTT, mitochondrial respiration)” value (“cell viability” for short) (B16 mouse melanoma cells)?
**A.** did not affect the viability

**Q.** And the “cell viability” value [1]?
**A.** did not affect the viability

**Q.** What about the “cell viability” value (C6 rat astrocytoma cells) of the same compound?
**A.** did not affect the viability
